According to ChEMBL document CHEMBL1142681, “Three-dimensional structure-activity relationships of nonsteroidal ligands in complex with androgen receptor ligand-binding domain” (J Med Chem, 2005):

molecular target: T1, Androgen receptor (Rattus norvegicus, UniProt P15207)
T1 sequence (P15207 whole entry): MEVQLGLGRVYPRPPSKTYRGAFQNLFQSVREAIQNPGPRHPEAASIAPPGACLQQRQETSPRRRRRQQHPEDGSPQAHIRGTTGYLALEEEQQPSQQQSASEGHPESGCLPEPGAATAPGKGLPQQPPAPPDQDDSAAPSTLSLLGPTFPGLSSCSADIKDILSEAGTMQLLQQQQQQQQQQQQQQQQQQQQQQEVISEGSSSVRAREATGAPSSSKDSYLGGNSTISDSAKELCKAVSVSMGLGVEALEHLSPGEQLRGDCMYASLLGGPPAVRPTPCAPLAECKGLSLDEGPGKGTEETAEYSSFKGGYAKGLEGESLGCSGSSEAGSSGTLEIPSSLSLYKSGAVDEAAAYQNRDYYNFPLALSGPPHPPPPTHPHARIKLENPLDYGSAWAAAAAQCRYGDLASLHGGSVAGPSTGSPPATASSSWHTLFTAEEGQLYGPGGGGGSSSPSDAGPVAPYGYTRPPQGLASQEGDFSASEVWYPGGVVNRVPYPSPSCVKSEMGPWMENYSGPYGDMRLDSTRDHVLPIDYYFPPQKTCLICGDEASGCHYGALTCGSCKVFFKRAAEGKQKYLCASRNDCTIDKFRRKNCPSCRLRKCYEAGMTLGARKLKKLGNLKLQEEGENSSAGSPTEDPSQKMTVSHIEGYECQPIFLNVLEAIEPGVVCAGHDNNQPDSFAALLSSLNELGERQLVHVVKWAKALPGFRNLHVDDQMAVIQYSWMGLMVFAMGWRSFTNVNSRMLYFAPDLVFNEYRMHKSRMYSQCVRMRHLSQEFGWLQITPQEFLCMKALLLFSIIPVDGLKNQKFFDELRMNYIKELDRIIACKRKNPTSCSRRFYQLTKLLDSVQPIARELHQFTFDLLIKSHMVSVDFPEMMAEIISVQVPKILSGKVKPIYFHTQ
Description: Inhibition of [3H]mibolerone binding to cytosolic androgen receptor of rat ventral prostate

Point of comparison: `C[C@](O)(CBr)C(=O)Nc1ccc(N)c(C(F)(F)F)c1`, Ki 81.3 nM. Against it:
- C[C@](O)(CBr)C(=O)Nc1ccc([N+](=O)[O-])cc1 — 2.5-fold lower, 33.1 nM
- CC(=O)Nc1ccc(S(=O)(=O)C[C@](C)(O)C(=O)Nc2ccc(C#N)c(C(F)(F)F)c2)cc1 — 5.1-fold lower, 15.8 nM
- C[C@@](O)(CS(=O)(=O)c1ccc(NC(=O)CCl)cc1)C(=O)Nc1ccc([N+](=O)[O-])c(C(F)(F)F)c1 — 2.9-fold higher, 234 nM
- C[C@](O)(CSc1ccc(N=C=S)cc1)C(=O)Nc1ccc2c(C(F)(F)F)cc(=O)oc2c1 — 1.7-fold higher, 135 nM
- CC(=O)Nc1ccc(SC[C@](C)(O)C(=O)Nc2ccc([N+](=O)[O-])c(C(F)(F)F)c2)cc1 — 28-fold lower, 2.88 nM
- C[C@](O)(CBr)C(=O)Nc1ccc2c(C(F)(F)F)cc(=O)oc2c1 — 1.6-fold higher, 132 nM
- C[C@](O)(CSc1ccc(NC(=O)C(F)(F)F)cc1)C(=O)Nc1ccc([N+](=O)[O-])c(C(F)(F)F)c1 — 32-fold lower, 2.57 nM
- CC(=O)Nc1ccc(SC[C@@](C)(O)C(=O)Nc2ccc([N+](=O)[O-])c(C(F)(F)F)c2)cc1 — 1.5-fold higher, 123 nM
- C[C@@](O)(CBr)C(=O)Nc1ccc2c(C(F)(F)F)cc(=O)oc2c1 — 3-fold higher, 245 nM
- C[C@](O)(CSc1ccc(NC(=O)CCl)cc1)C(=O)Nc1ccc([N+](=O)[O-])c(C(F)(F)F)c1 — 25-fold lower, 3.31 nM
- C[C@](O)(CSc1ccc(NS(C)(=O)=O)cc1)C(=O)Nc1ccc([N+](=O)[O-])c(C(F)(F)F)c1 — 1.6-fold lower, 50.1 nM
- C[C@@](O)(CSc1ccc(N)cc1)C(=O)Nc1ccc([N+](=O)[O-])c(C(F)(F)F)c1 — 6.5-fold higher, 525 nM
- Cc1cc(=O)oc2cc(NC(=O)[C@@](C)(O)CSc3ccc(F)cc3)ccc12 — within 1.5-fold, 91.2 nM
- CC(=O)Nc1ccc(SC[C@@](C)(O)C(=O)Nc2ccc(C#N)c(C(F)(F)F)c2)cc1 — 17-fold higher, 1380 nM
- CCC(=O)Nc1ccc(SC[C@](C)(O)C(=O)Nc2ccc(C#N)c(C(F)(F)F)c2)cc1 — 3-fold lower, 26.9 nM
- CCC(=O)N(C(=O)CC)c1ccc(SC[C@](C)(O)C(=O)Nc2ccc(C#N)c(C(F)(F)F)c2)cc1 — 8.1-fold higher, 661 nM
- C[C@](O)(CS(=O)(=O)c1ccc(NC(=O)CCl)cc1)C(=O)Nc1ccc([N+](=O)[O-])c(C(F)(F)F)c1 — 12-fold lower, 6.92 nM
- C[C@](O)(CSc1ccc(N)cc1)C(=O)Nc1ccc2c(C(F)(F)F)cc(=O)oc2c1 — 3.5-fold higher, 288 nM
- C[C@](O)(CBr)C(=O)Nc1ccc([N+](=O)[O-])cc1[N+](=O)[O-] — 14-fold higher, 1170 nM
- C[C@](O)(CS(=O)(=O)c1ccc(NS(C)(=O)=O)cc1)C(=O)Nc1ccc([N+](=O)[O-])c(C(F)(F)F)c1 — 5.4-fold lower, 15.1 nM
- C[C@](O)(CSc1ccc(N)cc1)C(=O)Nc1ccc([N+](=O)[O-])c(C(F)(F)F)c1 — within 1.5-fold, 57.5 nM
- C[C@](O)(CS(=O)(=O)c1ccc(N)cc1)C(=O)Nc1ccc(C#N)c(C(F)(F)F)c1 — 2.5-fold lower, 32.4 nM
- CC(=O)Nc1ccc(S(=O)(=O)C[C@@](C)(O)C(=O)Nc2ccc([N+](=O)[O-])c(C(F)(F)F)c2)cc1 — 7.2-fold higher, 589 nM
- C[C@](O)(CSc1ccccc1)C(=O)Nc1ccc2c(C(F)(F)F)cc(=O)oc2c1 — 1.6-fold higher, 132 nM
- C[C@@](O)(CSc1ccc(NC(=O)CCl)cc1)C(=O)Nc1ccc([N+](=O)[O-])c(C(F)(F)F)c1 — within 1.5-fold, 97.7 nM
- C[C@](O)(CS(=O)(=O)c1ccc(NC(=O)C(F)(F)F)cc1)C(=O)Nc1ccc([N+](=O)[O-])c(C(F)(F)F)c1 — 13-fold lower, 6.17 nM
- CC(=O)N(C(C)=O)c1ccc(SC[C@](C)(O)C(=O)Nc2ccc(C#N)c(C(F)(F)F)c2)cc1 — within 1.5-fold, 105 nM
- CC(=O)Nc1ccc(SC[C@](C)(O)C(=O)Nc2ccc(C#N)c(C(F)(F)F)c2)cc1 [ACETOTHIOLUTAMIDE] — 17-fold lower, 4.9 nM
